The results in this text go back to the supplement of paper PMC8372320.
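Also: aromatic molecules in triethylamine/methanol/water with Pt photoreduced in situ, irradiated 3 h under a 1 sun AM 1.5G solar simulator (350–1000 nm), H2 quantified by headspace gas chromatography; listed molecule itself used as the photocatalyst at 5 mg per vial.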

The data set is described as follows: photocatalytic hydrogen evolution rate (per 5 mg catalyst); higher = more photocatalytic H2 evolution; extreme values may be limits of the assay. The following applies: catalyst mass (mg): 5; Pt cocatalyst (wt%): 3; sacrificial medium: triethylamine/methanol/water 1:1:1.
As to `O=Cc1ccc(N2CCCCC2)cc1`, the “photocatalytic hydrogen evolution rate” value was found to be 0.431 µmol/h.

Take `N#Cc1cc(Br)c[nH]c1=O`: the “photocatalytic hydrogen evolution rate” value turned out to be 1.99 µmol/h. With `CC(C)(C)c1ccnc(-c2cc(C(C)(C)C)ccn2)c1` the figure was 0.236 µmol/h; with `Nc1nc(Br)cnc1Br`, 0.0666 µmol/h. With `Oc1ccc(I)cc1` the figure was 0 µmol/h. In the case of `Nc1cc(Br)ccc1-c1ccc(Br)cc1N` it was 0.0732 µmol/h; in that of `O=Cc1cc(Br)ccc1Br`, 0.957 µmol/h; in that of `c1csc(-c2ccc(-c3cccs3)c3nsnc23)c1`, 0.84 µmol/h. As for `O=Cc1cccc(O)c1`, the “photocatalytic hydrogen evolution rate” value is 0 µmol/h. As for `O=Cc1ccc2ncccc2c1`, the “photocatalytic hydrogen evolution rate” value was found to be 3.11 µmol/h. As for `Brc1cc(Br)c(Br)cc1Br`, the “photocatalytic hydrogen evolution rate” value is 0 µmol/h. In the case of `CCc1cc(C)cc(CC)c1Nc1ccc(Nc2c(CC)cc(C)cc2CC)c2c1C(=O)c1ccccc1C2=O` it was 0 µmol/h; in that of `O=Cc1cccc(C(=O)O)c1`, 1.06 µmol/h; in that of `C=Cc1ccc2c(=C(C#N)C#N)c3ccccc3c(=C(C#N)C#N)c2c1`, 0 µmol/h.

For the compound `O=Cc1ccc(O)cc1O`, the “photocatalytic hydrogen evolution rate” value stood at 0.896 µmol/h.

On to `CC(=O)c1ccc(-c2ccc(C(C)=O)cc2)cc1`, for which the “photocatalytic hydrogen evolution rate” value was 3.67 µmol/h. In the case of `C#Cc1ccc(C#C)cc1` it was 0 µmol/h; in that of `CN1CCN(c2ccc(C=O)cc2)CC1`, 0.409 µmol/h. Consider `Cc1cc(-c2cc(C)c(N)c(C)c2)cc(C)c1N`, for which the “photocatalytic hydrogen evolution rate” value is 0 µmol/h.

For the compound `O=C(C(=O)c1ccc(C(=O)C(=O)c2ccccc2)cc1)c1ccccc1`, the “photocatalytic hydrogen evolution rate” value was determined as 0.00597 µmol/h.

Take `O=S1(=O)c2ccc(Br)cc2-c2cc(Br)ccc21`: the “photocatalytic hydrogen evolution rate” value turned out to be 0.009 µmol/h. Take `N#Cc1csc(Br)n1`: the “photocatalytic hydrogen evolution rate” value is 0 µmol/h. With `CCOC(=O)c1cc(C(=O)OCC)cc(C(=O)OCC)c1` the figure was 0.0434 µmol/h; with `N#Cc1cnc(N)c(C#N)c1`, 0.468 µmol/h. With `N#Cc1cc(N)ccn1` the figure was 0 µmol/h. In the case of `O=Cc1ccc(-c2ccccn2)cc1` it was 5.1 µmol/h. `Nc1nc(N)nc(N)n1`: the “photocatalytic hydrogen evolution rate” value was found to be 0 µmol/h.

Turning to `O=Cc1c(F)c(F)c(C=O)c(F)c1F`, the “photocatalytic hydrogen evolution rate” value was found to be 0.177 µmol/h.

Regarding `C=Cc1ccccc1`, the “photocatalytic hydrogen evolution rate” value turned out to be 0 µmol/h.

As for `Cc1cncc(C)n1`, the “photocatalytic hydrogen evolution rate” value worked out at 0.0345 µmol/h.

As for `Brc1ccc(Br)c2nccnc12`, the “photocatalytic hydrogen evolution rate” value is 1.37 µmol/h.

Take `Brc1cnc(Br)s1`: the “photocatalytic hydrogen evolution rate” value is 0 µmol/h. In the case of `O=Cc1cc(Br)nc(Br)c1` it was 0.107 µmol/h; in that of `CC1(C)OB(c2ccc(-c3cccs3)s2)OC1(C)C`, 0 µmol/h.

In the case of `Nc1c(F)c(F)c(-c2c(F)c(F)c(N)c(F)c2F)c(F)c1F`, the “photocatalytic hydrogen evolution rate” value came out at 0 µmol/h. In the case of `O=Cc1ccc(-c2ccc(-c3ccc(C=O)s3)s2)s1` it was 1.6 µmol/h.

As for `O=C(c1ccccc1)c1ccccc1`, the “photocatalytic hydrogen evolution rate” value was 3.25 µmol/h. With `c1ccc(-c2c3ccccc3c(-c3ccccc3)c3c(-c4ccccc4)c4ccccc4c(-c4ccccc4)c23)cc1` the figure was 0.0539 µmol/h. With `Brc1cc(Br)c2ccc3c(Br)cc(Br)c4ccc1c2c43`, the “photocatalytic hydrogen evolution rate” value turned out to be 0.383 µmol/h. With `COC(=O)c1ccc(-c2ccc(C(=O)OC)cc2)cc1` the figure was 0.00435 µmol/h; with `c1ccc(P(c2ccccc2)c2ccc3ccccc3c2-c2c(P(c3ccccc3)c3ccccc3)ccc3ccccc23)cc1`, 0 µmol/h; with `BrCc1ccc(-c2ccc(CBr)cc2)cc1`, 0 µmol/h. In the case of `Brc1cc(Br)c2[nH]c3c(Br)cc(Br)cc3c2c1` it was 0.128 µmol/h; in that of `CCc1cc(C#N)ccc1C#N`, 0 µmol/h. In the case of `O=C1C(F)=C(F)C(=O)C(F)=C1F` it was 0 µmol/h; in that of `N#Cc1cc(N)ccc1Cl`, 0 µmol/h. As for `Brc1c2ccccc2c(-c2c3ccccc3c(Br)c3ccccc23)c2ccccc12`, the “photocatalytic hydrogen evolution rate” value was 1.44 µmol/h.

With `Brc1ccc2cc(Br)ccc2c1`, the “photocatalytic hydrogen evolution rate” value was found to be 0 µmol/h.

On to `Brc1ccc2c(c1)[nH]c1cc(Br)ccc12`, for which the “photocatalytic hydrogen evolution rate” value came out at 0 µmol/h. On to `N#CCC(=O)c1ccc(Br)cc1`, for which the “photocatalytic hydrogen evolution rate” value was found to be 0 µmol/h. In the case of `COc1cc(Br)ccc1C=O` it was 12.3 µmol/h.

Take `COC(OC)(C(=O)c1ccccc1)c1ccccc1`: the “photocatalytic hydrogen evolution rate” value worked out at 1.18 µmol/h. In the case of `O=C1OC2(c3ccccc31)c1cc(Br)c(O)c(Br)c1Oc1c2cc(Br)c(O)c1Br` it was 23.9 µmol/h; in that of `OC(c1ccccc1)c1ccccc1`, 0 µmol/h. In the case of `O=Cc1ccc(-c2cc(-c3ccc(C=O)cc3)c3ccc4c(-c5ccc(C=O)cc5)cc(-c5ccc(C=O)cc5)c5ccc2c3c54)cc1` it was 3.19 µmol/h; in that of `O=[N+]([O-])c1ccc(C(=C(c2ccc([N+](=O)[O-])cc2)c2ccc([N+](=O)[O-])cc2)c2ccc([N+](=O)[O-])cc2)cc1`, 0 µmol/h; in that of `N#Cc1cc(F)c(F)c(F)c1F`, 0 µmol/h. In the case of `N#CCC(=O)c1ccccc1` it was 0 µmol/h. Turning to `O=C(O)c1ccc2cc(C(=O)O)ccc2c1`, the “photocatalytic hydrogen evolution rate” value was 0 µmol/h. With `Nc1ccc2ccc3cccc4ccc1c2c34` the figure was 0 µmol/h; with `c1ccc(-c2ccccc2-c2ccccc2)cc1`, 0 µmol/h; with `Nc1ccc(C(c2ccc(N)cc2)(c2ccc(N)cc2)c2ccc(N)cc2)cc1`, 0 µmol/h. In the case of `c1ccc(-c2cccc(-c3ccccc3)c2)cc1` it was 0 µmol/h; in that of `Brc1cncc(Br)c1`, 0 µmol/h. On to `Brc1ccc2c(c1)C1(c3ccccc3-c3ccccc31)c1cc(Br)ccc1-2`, for which the “photocatalytic hydrogen evolution rate” value came out at 0 µmol/h. With `NC(=O)c1ccc(B(O)O)cc1` the figure was 0 µmol/h; with `Brc1ccc2c(c1)C1(c3cc(Br)ccc3-2)c2cc(Br)ccc2-c2ccc(Br)cc21`, 0.0511 µmol/h; with `N#CC(C#N)=c1ccc(=C(C#N)C#N)cc1`, 0 µmol/h.

For the compound `CC(=O)c1ccc(C(C)=O)cc1`, the “photocatalytic hydrogen evolution rate” value was 5.52 µmol/h. In the case of `N#Cc1cccc(Br)n1` it was 0 µmol/h; in that of `O=c1c2ccccc2sc2ccccc12`, 14.6 µmol/h.

As for `COc1ccc(B(O)O)cc1`, the “photocatalytic hydrogen evolution rate” value stood at 0 µmol/h. Turning to `N#Cc1ccc(/C=C/c2ccc(/C=C/c3ccc(C#N)cc3)cc2)cc1`, the “photocatalytic hydrogen evolution rate” value is 0.411 µmol/h. With `O=C1C(=O)c2cc(Br)ccc2-c2ccc(Br)cc21` the figure was 0 µmol/h; with `c1ccc2cc3ccccc3cc2c1`, 0 µmol/h.

With `Nc1cc(Br)c(F)cc1Br`, the “photocatalytic hydrogen evolution rate” value came to 0 µmol/h.
